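Protocol summary: plate cells (96-well), add compound at 5 concentrations, incubate 48 h, interpolate endpoints linearly. GI50 marks 50% less growth. TGI marks complete inhibition of growth.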
Legend:
Experiment in all cases: NCI-60 cell line screen, 48 h
[1] = test system: 786-0 renal
[2] = test system: A498 renal
[3] = test system: A549 NSCLC
[4] = test system: ACHN renal
[5] = test system: BT-549 breast
[6] = test system: CAKI-1 renal
[7] = test system: CCRF-CEM leukemia
[8] = test system: COLO 205 colon
[9] = test system: DU-145 prostate
[10] = test system: EKVX NSCLC
[11] = test system: HCC-2998 colon
[12] = test system: HCT-116 colon
[13] = test system: HCT-15 colon
[14] = test system: HL-60(TB) leukemia
[15] = test system: HOP-62 NSCLC
[16] = test system: HOP-92 NSCLC
[17] = test system: HS 578T breast
[18] = test system: HT29 colon
[19] = test system: IGROV1 ovarian
[20] = test system: K-562 leukemia
[21] = test system: KM12 colon
[22] = test system: LOX IMVI melanoma
[23] = test system: M14 melanoma
[24] = test system: MALME-3M melanoma
[25] = test system: MCF7 breast
[26] = test system: MDA-MB-231 breast
[27] = test system: MDA-MB-435
[28] = test system: MDA-MB-468 breast
[29] = test system: MOLT-4 leukemia
[30] = test system: NCI-H226 lung
[31] = test system: NCI-H23 lung
[32] = test system: NCI-H460 lung
[33] = test system: NCI-H522 lung
[34] = test system: NCI/ADR-RES ovarian
[35] = test system: OVCAR-3 ovarian
[36] = test system: OVCAR-4 ovarian
[37] = test system: OVCAR-5 ovarian
[38] = test system: OVCAR-8 ovarian
[39] = test system: PC-3 prostate
[40] = test system: RPMI-8226 leukemia
[41] = test system: RXF 393 renal
[42] = test system: SF-268 CNS
[43] = test system: SF-295 CNS
[44] = test system: SF-539 CNS
[45] = test system: SK-MEL-2 melanoma
[46] = test system: SK-MEL-28 melanoma
[47] = test system: SK-MEL-5 melanoma
[48] = test system: SK-OV-3 ovarian
[49] = test system: SN12C renal
[50] = test system: SNB-19 CNS
[51] = test system: SNB-75 CNS
[52] = test system: SR leukemia
[53] = test system: SW-620 colon
[54] = test system: T-47D breast
[55] = test system: TK-10 renal
[56] = test system: U251 CNS
[57] = test system: UACC-257 melanoma
[58] = test system: UACC-62 melanoma
[59] = test system: UO-31 renal

CC1(C)CC[C@]2(C(=O)O)CC[C@]3(C)C(=CCC4[C@@]5(C)C[C@@H](O)[C@@H]6OC(c7ccco7)OC[C@@]6(C)C5CC[C@]43C)C2C1 (stereo partly drawn)
GI50 [1]: 18.9 µM
TGI [1]: 64.7 µM
GI50 [2]: 14.1 µM
TGI [2]: 30.8 µM
GI50 [3]: 3.2 µM
TGI [3]: 20.2 µM
GI50 [4]: 0.111 µM
TGI [4]: 14.5 µM
GI50 [5]: 6.78 µM
TGI [5]: 21.4 µM
GI50 [6]: 21.3 µM
TGI [6]: 83.3 µM
GI50 [7]: 5.21 µM
TGI [7]: 30.3 µM
GI50 [8]: 0.11 µM
TGI [8]: 0.263 µM
GI50 [9]: 11.6 µM
TGI [9]: 85 µM
GI50 [10]: 5.05 µM
TGI [10]: 21.9 µM
GI50 [11]: 6.35 µM
TGI [11]: 20.4 µM
GI50 [12]: 5.01 µM
TGI [12]: 18.4 µM
GI50 [13]: 3.32 µM
TGI [13]: 15.8 µM
GI50 [14]: 9.31 µM
TGI [14]: 43.4 µM
GI50 [15]: 7.06 µM
TGI [15]: 28.7 µM
GI50 [16]: 5.97 µM
TGI [16]: 22.7 µM
GI50 [17]: 11.1 µM
TGI [17]: 45.2 µM
GI50 [18]: 12.8 µM
TGI [18]: 41.5 µM
GI50 [19]: 11.7 µM
TGI [19]: 28 µM
GI50 [20]: 4.81 µM
TGI [20]: > 100 µM
GI50 [21]: 5.84 µM
TGI [21]: 23.4 µM
GI50 [22]: 5.69 µM
TGI [22]: 19.1 µM
GI50 [23]: 0.416 µM
TGI [23]: 16.8 µM
GI50 [24]: 0.191 µM
TGI [24]: 0.894 µM
GI50 [25]: 8.83 µM
TGI [25]: 36.4 µM
GI50 [26]: 16.2 µM
TGI [26]: 32.3 µM
GI50 [27]: 0.475 µM
TGI [27]: 15.4 µM
GI50 [28]: 0.11 µM
TGI [28]: 6.03 µM
GI50 [29]: 4.75 µM
TGI [29]: 33.7 µM
GI50 [30]: 11.7 µM
TGI [30]: 36.1 µM
GI50 [31]: 9.31 µM
TGI [31]: 23.2 µM
GI50 [32]: 6.45 µM
TGI [32]: 19.9 µM
GI50 [33]: 10.6 µM
TGI [33]: 28.1 µM
GI50 [34]: 6.62 µM
TGI [34]: 32.3 µM
GI50 [35]: 9.25 µM
TGI [35]: 23 µM
GI50 [36]: 16.6 µM
TGI [36]: 63.4 µM
GI50 [37]: 16.4 µM
TGI [37]: 30.6 µM
GI50 [38]: 10.3 µM
TGI [38]: 61.5 µM
GI50 [39]: 9.27 µM
TGI [39]: > 100 µM
GI50 [40]: 5.62 µM
TGI [40]: 71.2 µM
GI50 [41]: 13 µM
TGI [41]: 26.5 µM
GI50 [42]: 10.7 µM
TGI [42]: 31.8 µM
GI50 [43]: 5.3 µM
TGI [43]: 19.1 µM
GI50 [44]: 13.3 µM
TGI [44]: 26.4 µM
GI50 [45]: 0.417 µM
TGI [45]: 13.7 µM
GI50 [46]: 0.22 µM
TGI [46]: 15.7 µM
GI50 [47]: 0.304 µM
TGI [47]: 1.2 µM
GI50 [48]: 27.1 µM
TGI [48]: > 100 µM
GI50 [49]: 11.8 µM
TGI [49]: 26.2 µM
GI50 [50]: 3.97 µM
TGI [50]: 21.8 µM
GI50 [51]: 6.35 µM
TGI [51]: 30.2 µM
GI50 [52]: 9.92 µM
TGI [52]: 51.4 µM
GI50 [53]: 11.2 µM
TGI [53]: 25.4 µM
GI50 [54]: 15.6 µM
TGI [54]: > 100 µM
GI50 [55]: 16.4 µM
TGI [55]: 68.9 µM
GI50 [56]: 1.47 µM
TGI [56]: 16.9 µM
GI50 [57]: 0.208 µM
TGI [57]: 0.913 µM
GI50 [58]: 0.312 µM
TGI [58]: 12.5 µM
GI50 [59]: 6.95 µM
TGI [59]: 21.1 µM
